For 21 compounds, IC50 results are on record in patent US11420944B2, “Voltage-dependent t-type calcium channel blocker” (Nippon Chemiphar Co., Ltd., priority 2016, dated 2022).

The target in the assay is T1, human Cav3.2 channels (Homo sapiens, UniProt O95180).
T1 construct: expressed in transfected cells; host or cells: HEK293 cells (ATCC No. CRL-1573), plasmid pcDNA3.1(+)
T1 sequence (O95180 whole entry): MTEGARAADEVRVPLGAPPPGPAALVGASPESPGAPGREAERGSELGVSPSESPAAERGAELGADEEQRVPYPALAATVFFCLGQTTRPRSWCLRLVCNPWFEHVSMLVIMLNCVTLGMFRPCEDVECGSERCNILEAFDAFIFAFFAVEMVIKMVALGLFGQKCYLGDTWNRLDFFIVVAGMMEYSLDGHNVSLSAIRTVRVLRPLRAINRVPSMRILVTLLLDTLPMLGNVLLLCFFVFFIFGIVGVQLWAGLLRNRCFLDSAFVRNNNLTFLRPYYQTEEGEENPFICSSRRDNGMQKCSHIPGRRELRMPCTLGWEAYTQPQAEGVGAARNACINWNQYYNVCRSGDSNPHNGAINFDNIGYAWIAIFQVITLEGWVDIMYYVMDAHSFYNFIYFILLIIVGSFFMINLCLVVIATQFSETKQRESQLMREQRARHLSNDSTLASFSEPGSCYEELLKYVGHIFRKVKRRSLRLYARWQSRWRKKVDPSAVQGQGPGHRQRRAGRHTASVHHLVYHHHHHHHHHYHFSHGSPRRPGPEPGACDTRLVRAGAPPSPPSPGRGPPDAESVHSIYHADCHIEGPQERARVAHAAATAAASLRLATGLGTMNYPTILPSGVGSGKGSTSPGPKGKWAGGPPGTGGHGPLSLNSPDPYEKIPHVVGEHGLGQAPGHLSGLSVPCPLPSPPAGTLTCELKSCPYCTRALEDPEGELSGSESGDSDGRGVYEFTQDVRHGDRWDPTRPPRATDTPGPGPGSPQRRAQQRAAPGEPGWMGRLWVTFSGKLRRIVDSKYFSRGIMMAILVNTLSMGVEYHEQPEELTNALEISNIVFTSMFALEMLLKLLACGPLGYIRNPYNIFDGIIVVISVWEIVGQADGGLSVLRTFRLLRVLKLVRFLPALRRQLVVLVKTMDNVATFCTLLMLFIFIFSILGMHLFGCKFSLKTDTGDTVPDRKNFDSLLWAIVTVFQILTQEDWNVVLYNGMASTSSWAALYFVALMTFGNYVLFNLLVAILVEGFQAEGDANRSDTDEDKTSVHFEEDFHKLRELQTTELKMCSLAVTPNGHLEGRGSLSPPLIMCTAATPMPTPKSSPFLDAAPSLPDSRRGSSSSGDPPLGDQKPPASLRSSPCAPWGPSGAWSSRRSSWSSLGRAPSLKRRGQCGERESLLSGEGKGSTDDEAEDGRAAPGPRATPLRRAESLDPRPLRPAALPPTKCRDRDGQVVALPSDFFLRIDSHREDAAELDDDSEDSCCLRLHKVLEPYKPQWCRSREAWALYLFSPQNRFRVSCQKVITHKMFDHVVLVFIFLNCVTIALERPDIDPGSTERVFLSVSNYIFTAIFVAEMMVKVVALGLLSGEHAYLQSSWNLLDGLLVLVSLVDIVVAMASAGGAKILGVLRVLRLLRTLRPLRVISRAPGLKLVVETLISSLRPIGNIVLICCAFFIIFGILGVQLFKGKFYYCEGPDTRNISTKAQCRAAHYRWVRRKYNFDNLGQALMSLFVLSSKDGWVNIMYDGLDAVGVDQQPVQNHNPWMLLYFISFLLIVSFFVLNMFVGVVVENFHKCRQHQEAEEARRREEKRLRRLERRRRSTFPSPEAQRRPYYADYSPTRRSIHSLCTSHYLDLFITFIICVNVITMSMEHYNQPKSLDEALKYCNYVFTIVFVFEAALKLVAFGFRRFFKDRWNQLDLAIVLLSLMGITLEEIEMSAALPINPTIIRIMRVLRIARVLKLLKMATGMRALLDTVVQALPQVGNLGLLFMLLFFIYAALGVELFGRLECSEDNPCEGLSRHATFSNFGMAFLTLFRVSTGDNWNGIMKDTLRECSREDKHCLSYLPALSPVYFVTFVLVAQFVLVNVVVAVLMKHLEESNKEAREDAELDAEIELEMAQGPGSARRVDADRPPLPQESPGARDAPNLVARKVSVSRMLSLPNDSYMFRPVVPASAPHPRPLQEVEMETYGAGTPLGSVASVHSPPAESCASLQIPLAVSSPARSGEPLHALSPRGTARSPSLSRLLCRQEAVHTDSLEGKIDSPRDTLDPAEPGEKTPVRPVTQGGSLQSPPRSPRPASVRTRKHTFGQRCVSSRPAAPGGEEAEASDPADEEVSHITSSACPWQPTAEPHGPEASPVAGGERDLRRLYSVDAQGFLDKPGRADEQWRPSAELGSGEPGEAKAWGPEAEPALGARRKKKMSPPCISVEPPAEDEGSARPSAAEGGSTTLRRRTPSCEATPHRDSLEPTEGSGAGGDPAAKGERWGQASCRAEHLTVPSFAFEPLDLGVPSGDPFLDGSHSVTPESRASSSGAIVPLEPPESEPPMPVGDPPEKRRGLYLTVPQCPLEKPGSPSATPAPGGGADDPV
Put plainly: Intracellular calcium concentration measurement (Fluo-4 AM) in stable cells expressing human Cav3.2 channels, buffer A / buffer B. Format: cell-based. The note with it: Tables 2 to 6; buffer A, equilibrium potential of potassium −92 mV; read-out: Inhibitory action of buffer A (inactivated state). An excerpt:
Construction of Stable Cells Expressing Human Cav3.2 Channels
(1) A sequence produced by incorporating HindIII site and kozak sequence (GCCACC) into the 5′-terminal side of human Cav3.2 channel ORF (Open Reading Frame) gene and incorporating Kpnl site into the 3′-terminal side was incorporated into pcDNA3.1(+) (Thermo-Fisher Scientific, Inc., #V790-20), and the plasmid was transfected into HEK293 cells (ATCC No. CRL-1573) according to the protocol of FuGENE (registered trademark) HD Transfection Reagent (PROMEGA #E2311).
(2) Method for Measuring Intracellular Calcium Concentration
In the present measurement system, buffer A and buffer B having different potassium ion concentrations were used in order to evaluate the state-dependent Cav3.2 inhibitory action of a test compound.
Stable cell line expressing human Cav3.2 channels, which had been produced in (1), was seeded in a 96-well plate using DMEM medium including 10% FBS, and the cells were cultured for 48 hours under the conditions of 37° C. and 5% CO2. Subsequently, the medium was removed, and various wells that had been washed with a base buffer were treated with 80 μL of a fluorescent dye solution containing a mixed liquid of 22 μg of calcium fluorescence indicator Fluo-4 AM (Dojindo Laboratories Co., Ltd., #F311), 20 μL of DMSO, […] of 10% Pluronic F-127 (Thermo-Fisher Scientific, Inc., #P6866), and 4 mL of a base buffer. The cells were left to stand for 45 minutes at room temperature in the dark, and then the cells were washed with buffer A or buffer B. Solutions having various test compound concentrations and respectively containing buffer A or buffer B were added to the respective wells, the respective solutions containing DMSO at the same final concentration as that of the test compound as negative control, or containing the test compound dissolved in 100% DMSO at a final concentration of 0.1%. The cells were left to stand for another 15 minutes at room temperature in the dark, and the cells were analyzed using the following method using a microplate reader, EnVision (PerkinElmer, Inc.). First, the background fluorescence for each well was measured, subsequently an ionophore was added to the well, and the fluorescence of the baseline was measured. Subsequently, buffer A or buffer B containing added KCl at a concentration of 83.8 mM or 91.8 mM was added to each well, and an increase in fluorescence caused by a calcium influx generated by that stimulus was measured for 10 seconds. The percentage inhibition was calculated from the maximum fluorescence increment from the baseline, and the logarithmic value of the test compound concentration and the inhibitory activity were plotted to calculate the IC50 value. The analysis was carried out by measuring the fluorescence at 510 nm emitted when the cells were irradiated with exciting light at 485 nm.
Base buffer: 140 mM NaCl, 5 mM KCl, 1 mM MgCl2, 0.5 mM CaCl2, 10 mM Glucose, and 10 mM HEPES, pH 7.3
Buffer A: Equilibrium potential of potassium: −92 mV
For orientation: Calcium flux is commonly read through the fluorescence of an indicator in the cells.
In the case of `C[C@@H](NC(=O)C1CC1c1nc2cc(Cl)ccc2[nH]1)c1nc(C2CC2)no1` (single isomer, unassigned) [Example 77A], the IC50 was 100 to 1000 nM.

Consider `C[C@@H](NC(=O)C1CC1c1nc2cc(Cl)ccc2[nH]1)c1nc(C2CC2)no1` (single isomer, unassigned) [Example 77B], for which the IC50 lay within 1000 to 10000 nM.

As to `C[C@@H](NC(=O)C1CC1c1nc2cc(Cl)cnc2[nH]1)c1ccc(OCC(F)(F)F)s1` (single isomer, unassigned) [Example 85A], the IC50 lay in the range of 1000 to 10000 nM.

As to `C[C@@H](NC(=O)C1CC1c1nc2cc(Cl)cnc2[nH]1)c1ccc(OCC(F)(F)F)s1` (single isomer, unassigned) [Example 85B], the IC50 was above 10000 nM.

Regarding `C[C@@H](NC(=O)C1CC1c1c[nH]c2ccccc12)c1cc2cc(F)ccc2o1` (single isomer, unassigned) [Example 98A], the IC50 lay in the range of 100 to 1000 nM.

For `C[C@@H](NC(=O)C1CC1c1c[nH]c2ccccc12)c1cc2cc(F)ccc2o1` (single isomer, unassigned) [Example 98B], the IC50 fell in the range of 100 to 1000 nM.

Regarding `C[C@@H](NC(=O)C1CC1c1ccc2cnn(C)c2c1)c1cc2cc(F)ccc2o1` (single isomer, unassigned) [Example 103A], the IC50 lay in the range of 100 to 1000 nM.

`C[C@@H](NC(=O)C1CC1c1ccc2cnn(C)c2c1)c1cc2cc(F)ccc2o1` (single isomer, unassigned) [Example 103B]: the IC50 was above 10000 nM.

Regarding `Cc1ccc2nc(C3CC3C(=O)N[C@H](C)c3ccc(OCC(F)(F)F)s3)[nH]c2n1` (single isomer, unassigned) [Example 106A], the IC50 fell in the range of 1000 to 10000 nM.

Turning to `Cc1ccc2nc(C3CC3C(=O)N[C@H](C)c3ccc(OCC(F)(F)F)s3)[nH]c2n1` (single isomer, unassigned) [Example 106B], the IC50 lay in the range of 1000 to 10000 nM.

Regarding `C[C@@H](NC(=O)C1CC1c1nc2cc(Cl)ccc2o1)c1cc2cc(F)ccc2o1` (single isomer, unassigned) [Example 108A], the IC50 was 100 to 1000 nM.

As for `C[C@@H](NC(=O)C1CC1c1nc2cc(Cl)ccc2o1)c1cc2cc(F)ccc2o1` (single isomer, unassigned) [Example 108B], the IC50 was 100 to 1000 nM.

For the compound `C[C@@H](NC(=O)C1CC1COc1ccc(F)cc1)c1cc2cc(F)ccc2o1` (single isomer, unassigned) [Example 112A], the IC50 lay within 1000 to 10000 nM.

Turning to `C[C@@H](NC(=O)C1CC1COc1ccc(F)cc1)c1cc2cc(F)ccc2o1` (single isomer, unassigned) [Example 112B], the IC50 was in the range of 100 to 1000 nM.

Turning to `C[C@@H](NC(=O)C1CC1c1ncc2ccccn12)c1cc2cc(F)ccc2o1` (single isomer, unassigned) [Example 117B], the IC50 lay within 1000 to 10000 nM.

On to `C[C@@H](NC(=O)C1CC1c1nc2c(Cl)cccc2[nH]1)c1ccc(OCC(F)(F)F)s1` (single isomer, unassigned) [Example 122A], for which the IC50 is at most 100 nM.

For `C[C@@H](NC(=O)C1CC1c1nc2c(Cl)cccc2[nH]1)c1ccc(OCC(F)(F)F)s1` (single isomer, unassigned) [Example 122B], the IC50 lay within 100 to 1000 nM.

Consider `CC(NC(=O)[C@H]1C[C@@H]1c1nc2ccccc2[nH]1)c1nc2ccc(F)cc2[nH]1` (single isomer, unassigned) [Example 127A], for which the IC50 was in the range of 100 to 1000 nM.

Consider `CC(NC(=O)[C@H]1C[C@@H]1c1nc2ccccc2[nH]1)c1nc2ccc(F)cc2[nH]1` (single isomer, unassigned) [Example 127B], for which the IC50 lay in the range of 1000 to 10000 nM.

`C[C@@H](NC(=O)C1CC1C(=O)Nc1cccc(C(F)(F)F)c1)c1cc2cc(F)ccc2o1` (single isomer, unassigned) [Example 130B]: the IC50 fell in the range of 100 to 1000 nM.

Take `C[C@@H](NC(=O)C1CC1c1nc2ccccc2[nH]1)c1ccc(C(=O)N2CCOCC2)s1` (stereo in doubt) [Example 56, Trans-2-(1H-benzo[d]imidazol-2-yl)-N—((R)-1-(5-(morpholine-4-carbonyl)thiophen-2-yl)ethyl)cyclopropane-1-carboxamide]: the IC50 lay in the range of 1000 to 10000 nM.
